According to patent US20040002521A1, “Cyclopropanecarboxylic acid amide compound and pharmaceutical use thereof” (AJINOMOTO CO. INC, priority 2000, published 2004):
Values after ≈ are worked out from the molar mass of the structure shown.

Test system: NF-kappa B
Assay: Evaluation of NF-kappa B inhibition (β-gal reporter driven by 6 NF-kappa B binding sequences in immortalized HUVEC, IL-1β induced)
Format: cell-based
Details: Homo sapiens; HUVEC reporter cells; compound added 30 minutes before IL-1β; β-gal activity determined after 16 hours; read-out: NF-kappa B Inhibitory Activity: IC50
Description: Evaluation of NF-kappa B Inhibition
In this evaluation, there were used cells obtained by stably introducing β-galactosidase (β-gal) gene of Escherichia coli, which was driven by an SV40 minimum promoter produced by fusing 6 NF-kappa B binding sequences derived from the kappa light chain enhancer of immunoglobulin arranged in a tandem to human normal umbilical venous endothelial cells (HUVEC) immortalized with an SV40 large-sized T-antigen. These cells were subjected to the subculture in an RPMI culture medium supplemented with 10% FBS (fetal bovine serum) and the cells were inoculated in wells of a 96-well plate in a concentration of 1×10^4 cells/well on the day before the initiation of the experiments. Each candidate compound of the present invention was dissolved in DMSO in an adequate concentration and then added to each well of the 96-well plate in such a manner that the final concentration of DMSO was adjusted to a level of not more than 1%. After 30 minutes from the addition of the compound, a […] IL-1β was added to each well to a final concentration of 50 ng/ml to thus induce the NF-kappa B activity and the β-gal activity was determined after 16 hours therefrom. The β-gal activity was determined using a chemiluminescent substrate (Galacton-Light-Plus available from Boehringer Manheim Company), which was used according to the protocols annexed to the reagent, and Luminescencer (available from ATO Company).

SMILES | IC50 [µg/mL]
CC1(C)CC1C(=O)Nc1ccc(Cc2ccccc2)cc1 (stereo not shown) [Example 1, 2,2-Dimethyl-cyclopropanecarboxylic acid (4-benzylphenyl)-amide] | 3 (≈ 10.7 µM)
Cc1ccc(NC(=O)C2CC2(C)C)cc1 (stereo not shown) [Example 2, 2,2-Dimethyl-cyclopropanecarboxylic acid p-tolylamide] | 3 (≈ 14.8 µM)
CC1(C)CC1C(=O)Nc1ccc(Oc2ccc(Cl)cc2)cc1 (stereo not shown) [Example 9, 2,2-Dimethyl-cyclopropanecarboxylic acid [4-(4-chlorophenoxy)-phenyl]-amide] | 5 (≈ 15.8 µM)
CC1(C)CC1C(=O)Nc1ccc(Nc2ccccc2)cc1 (stereo not shown) [Example 12, 2,2-Dimethyl-cyclopropanecarboxylic acid (4-phenylamino-phenyl)-amide] | 2 (≈ 7.13 µM)
